Laboratory results reported in patent US12186356B2, “Composition for preventing, alleviating, or treating allergic skin disease comprising as active ingredient extract of gardenia fruit from which pigment is removed” (KOREA INSTITUTE OF ORIENTAL MEDICINE, priority 2018, dated 2025).

How the values were obtained:
[1] = test system: NC/Nga mouse with induced allergic atopic dermatitis (house dust mite antigen); experiment: Number of itching in an animal model with allergic atopic dermatitis, extract orally administered; type: in vivo; conditions: oral 100 mg/kg or 200 mg/kg once a day for 14 days; itching counted for 20 minutes; p<0.05 to p<0.001; FIG. 6
Description: On the skin of a 8-week old NC/Nga mouse, 100 mg of an ointment (AD Biostir, Japan) which contains components originating from house dust mite as an antigen causing allergic atopy were applied, total 6 times for 21 days with an interval of 3 to 4 days to induce allergic atopic dermatitis. On a day of starting the test, 150μl of 4% SDS were applied to the animal, and, after allowing it to stand for 1 hour, 100 mg of the house dust mite antigen were applied to back and both ears of the animal, respectively. Seven days after inducing allergic atopic dermatitis, the animal was orally administered with 100 mg/kg or 200 mg/kg of the pharmaceutical (extract of gardenia fruit or extract of gardenia fruit from which pigment is removed), once a day for 14 days.
Thereafter, using the animal model with induced allergic dermatitis, number of itching in the ear and back of the animal for 20 minutes was examined once a week to compare the effects obtained according to administration of a pharmaceutical. All the measurement results are expressed in terms of mean and standard deviation (SD), and a difference among test groups was subjected to a statistical analysis using one-way ANOVA. Statistical significance was recognized when p is less than 0.05 (p<0.05).

[2] = test system: NC/Nga mouse with induced allergic atopic dermatitis (house dust mite antigen); experiment: Skin state and number of scratching (itching) in an animal model with allergic atopic dermatitis, extract applied on skin; type: in vivo; conditions: applied on skin once a day for 14 days; itching counted for 20 minutes; p<0.001; FIG. 3
Description: On the skin of a 8-week old NC/Nga mouse, 100 mg of an ointment (AD Biostir, Japan) which contains components originating from house dust mite as an antigen causing allergic atopy were applied, total 6 times for 21 days with an interval of 3 to 4 days to induce allergic atopic dermatitis. Seven days after inducing allergic atopic dermatitis, the animal was applied with 1 mg/ml of the pharmaceutical (extract of gardenia fruit (GJE 1%), extract of gardenia fruit from which pigment is removed (GJE-CR 1%), or tacrolimus), once a day for 14 days. Thereafter, using the mouse with induced allergic dermatitis, number of itching for 20 minutes and level of skin damage on ear and back of the animal were examined once a week. All the measurement results are expressed in terms of mean and standard deviation (SD), and a difference among test groups was subjected to a statistical analysis using one-way ANOVA. Statistical significance was recognized when p is less than 0.05 (p<0.05).

inflammatory cells = experiment: Change in inflammatory cell infiltration in ear and back skin tissues, H&E staining; type: in vivo, NC/Nga mouse; conditions: skin tissues of back and ear; applied on skin; p<0.01 or p<0.001; FIG. 4
Description: (§1) On the skin of a 8-week old NC/Nga mouse, 100 mg of an ointment (AD Biostir, Japan) which contains components originating from house dust mite as an antigen causing allergic atopy were applied, total 6 times for 21 days with an interval of 3 to 4 days to induce allergic atopic dermatitis. Seven days after inducing allergic atopic dermatitis, the animal was applied with 1 mg/ml of the pharmaceutical (extract of gardenia fruit (GJE 1%), extract of gardenia fruit from which pigment is removed (GJE-CR 1%), or tacrolimus), once a day for 14 days. Skin tissues of the ear and back of a mouse with induced allergic dermatitis were collected and, by H&E (hematoxylin and eosin) staining and use of an image measuring program (Solution FL ver 9.1), a change in inflammatory cell infiltration was determined. All the measurement results are expressed in terms of mean and standard deviation (SD), and a difference among test groups was subjected to a statistical analysis using one-way ANOVA. Statistical significance was recognized when p is less than 0.05 (p<0.05).

mast cells = experiment: Number of mast cells in ear and back skin tissues, toluidine blue staining; type: in vivo, NC/Nga mouse; conditions: applied on skin, p<0.01 or p<0.001, FIG. 5
Description: as §1, with “toluidine blue (TB)” for “H&E (hematoxylin and eosin)”, “number of mast cells” for “a change in inflammatory cell infiltration”

Structure (SMILES)	number of scratching (number of itching) over days compared to the control group (Control) [1]	number of scratching (number of itching) compared to the control group (Control) [2]	inflammatory cells compared to the control group (Control) (inflammatory cells)	mast cells compared to the control group (Control) (mast cells)
C[C@]12C=CC(=O)C=C1CC[C@@H]1[C@@H]2[C@@H](O)C[C@@]2(C)[C@H]1CC[C@]2(O)C(=O)CO [prednisolone]	decreased with statistical significance	–	–	–
C=CC[C@@H]1/C=C(\C)C[C@H](C)C[C@H](OC)[C@H]2O[C@@](O)(C(=O)C(=O)N3CCCC[C@H]3C(=O)O[C@H](/C(C)=C/[C@@H]3CC[C@@H](O)[C@H](OC)C3)[C@H](C)[C@@H](O)CC1=O)[C@H](C)C[C@@H]2OC [tacrolimus]	–	decreased with statistical significance	decreased with statistical significance	decreased with statistical significance
